According to article PMC3816707, “Diamidines versus Monoamidines as Anti-Pneumocystis Agents: An in vivo Study” (Pharmaceuticals, 2013):
Where a name gives a salt, the structure may show the parent alone.

Tests used:
[1] = In vitro cytotoxicity, MTT-based cell viability assay; design: species or system murine; conditions: mouse, 3T6 embryonal fibroblast cells (adherent); 3T6 murine embryonal fibroblast cell line, MTT, triplicate, mean
Protocol: (§1) In vitro cytotoxicity assays with established cell lines are useful tools for the general screening of chemicals in toxicological studies. […] The procedure, according to the manufacturer recommendations, was based on the colorimetric determination of the succinate dehydrogenase activity by visualization (540 nm) of the conversion of a tetrazolium salt into formazan. With a microplate reader (Thermo Labsystems Multiskan Ascent 354, Waltham, MA, USA), the optical density of each well was measured at 540 nm against the background absorbance whose reference filter was set at 690 nm. Blank controls (culture medium), free-drug controls, and solvent (DMSO) controls were included in each assay. All cytotoxicity assays were set up in triplicate. […] The IC50 parameters were obtained by plotting % inhibition values against the logarithm of concentration for each compound.
(§2) For each compound, the % inhibition of activity against the concentration scale was plotted. The 50% inhibiting concentrations of cell proliferation (IC50) were calculated by locating the x-axis values corresponding to one-half of the absorbance values. The experiments were repeated in triplicate for each substance.

[2] = system: Pneumocystis carinii; assay: In vitro anti-Pneumocystis activity, P. carinii axenic short culture (4 days); type: cell-based; conditions: for inhibition of growth at 50 µg/mL / inhibition of growth at 0.1 µg/mL / inhibition of growth at 10 µg/mL / EC50: Pneumocystis carinii, 96 h; for inhibition of growth at 50 µg/mL / Anti-Pneumocystis activity % inhibition vs. free-drug control at 0.1 µg/mL / Anti-Pneumocystis activity % inhibition vs. free-drug control at 10 µg/mL / Anti-Pneumocystis activity % inhibition vs. free-drug control at 50 µg/mL: 4 days axenic culture; for inhibition of growth at 50 µg/mL: read-out: Anti-Pneumocystis activity % inhibition vs. free-drug control at 50 µg/mL; for inhibition of growth at 0.1 µg/mL: read-out: Anti-Pneumocystis activity % inhibition vs. free-drug control at 0.1 µg/mL, 0.1 µg/mL, 4 days axenic culture; for inhibition of growth at 10 µg/mL: read-out: Anti-Pneumocystis activity % inhibition vs. free-drug control at 10 µg/mL, 10 µg/mL, 4 days axenic culture; for EC50: 150 to 1.35 10^-5 µM, read-out: EC50 against P. carinii
Protocol: Drug stock solutions in DMSO (10 mg/mL) were diluted in Dulbecco's Modified Eagle's Medium (DMEM, BioWhittaker) supplemented with 10% heat-inactivated foetal calf serum (FCS, Gibco-BRL) to produce the required drug concentrations. P. carinii axenic short cultures were performed as follows. All the experiments were carried out in 24-well plates with a final volume of 2 mL of DMEM supplemented with 10% of heat-inactivated fetal calf serum (FCS) containing a final inoculum of 10^6 organisms per mL. Plates were incubated for 4 days in an atmosphere of 5% CO2 at 37 °C. Then, P. carinii organisms were collected and quantified after RAL-555 panoptic staining. In parallel with these free-drug growth control wells, the anti-Pneumocystis effect of pentamidine and the other bisbenzamidines considered in this study was investigated in the same conditions. All molecules have been screened at a high (50 µg/mL), a medium (10 µg/mL), and a low (0.1 µg/mL) concentration. All experiments were performed in triplicate and data were statistically processed using Student’s t-test. Two-sided p-values < 0.05 were deemed to be statistically significant.
The parameters of this pharmacodynamic model were calculated by nonlinear least-squares regression techniques using commercial software (Sigma Plot, Systat Software Inc., San Jose, CA, USA).

[3] = system: Pneumocystis carinii; assay: In vivo anti-Pneumocystis activity, P. carinii pneumonia in nude rats; design: species or system athymic Lou nu/nu rats; conditions: for % of inhibition versus control rats: once a day for 10 days, P. carinii count in lung homogenates; for In vivo anti-Pneumocystis activity: subcutaneous, 5 and 20 mg/kg/day, 10 days
Protocol: To evaluate the in vivo anti-Pneumocystis activity, drug stock solutions in DMSO (300 mg/mL) were diluted in phosphate buffered saline (PBS, BioWhittaker) to produce the required final drug concentrations just before subcutaneous injection. Seven weeks p.i., animals were divided into groups of 4, and then pentamidine and derivatives 4 and 6 were dosed at 5 or 20 mg/kg by subcutaneous route. The drugs were given once a day for 10 consecutive days. The final concentration of DMSO in diluted drug solutions was maintained between 1.5% and 6%. Control animals received doses of 6%-DMSO in sterile water. Twenty-four hours after the end of the treatment, animals were euthanatized and the lung homogenised in a Stomacher-400 blender as previously described. Quantitation of trophic forms, sporocytes, and cysts was performed on air-dried smears stained with RAL-555 stain [34, 37, 38]. Therapeutic efficacy was assessed by counting P. carinii parasites in lung homogenates and comparing them with those of the untreated controls at the end of the experiment. The results were expressed as percentage of inhibition versus drug-free animal controls and presented as mean and standard error. Data were analyzed using a two-way analysis of variance (PROC MIXED, SAS Institute, Cary, NC, USA), with sex, drug, and their interaction as independent predictors. Due to heterogeneity in parasites count distributions, the first step of the analysis was the selection of the within-subject covariance, based either on likelihood ratio tests or on the Bayesian Information Criterion. Then, tests of the fixed effects were performed. No interaction was found between sex and drug. Therapeutic efficacy was assessed with polynomial contrasts. Regression underlying assumptions were visually inspected with residual plots. Statistical significance was set at α = 0.05.
An in vivo experiment was performed in order to explore whether it reflected in vitro results. The used in vivo model was the athymic Pneumocystis-free Lou nu/nu rats non-surgically inoculated by endo-tracheal route with a suspension of P. carinii organisms. […] Rats developed high infection levels 6–8 weeks post inoculation without secondary fungal or bacterial infection. […] Thus animals were endotracheally infected after 2 weeks of dexamethasone administration (1 mg/L, drinking water) with 10^7 P. carinii organisms. Drugs were administered once a day by subcutaneous route for 10 consecutive days. Untreated animals developed extensive infections at the end of the treatment period. The number of total P. carinii organisms per lung in DMSO control rats was 1.26 ± 0.20 × 10^10. […] On the other hand, whereas showing a strong anti-Pneumocystis activity in vitro, the monoamidine 7 appeared to be poorly potent when administered subcutaneously to Pneumocystis-infected rats, even at the dose of 20 mg/kg/day.

[4] = Visual observations of treated rats (behavior, injection site); type: in vivo, rat; conditions: for Cutaneous reaction at the site of injections: subcutaneous treatment, data not shown
[5] = system: 3T6 fibroblast cell line; assay: In vitro cytotoxicity, MTT-based cell viability assay; design: species or system murine; conditions: for Cytotoxicity: 3T6 cell line; for IC50 fold higher than for the reference compound (pentamidine): 3T6 cytotoxicity
Protocol: as §1, §2

[6] = design: method as in PMID 21147326; conditions: in comparison with pentamidine and the diamidine 6; cited from earlier work
[7] = Hill equation, 4 days of culture

melting point | EC50 [2, 7] | Structure (SMILES) | IC50 [1] | Slope S (steepness of the concentration-effect curve) [2, 7] | inhibition of growth at 50 µg/mL [2] | inhibition of growth at 0.1 µg/mL [2] | inhibition of growth at 10 µg/mL [2] | % of inhibition versus control rats ([3]; 5 mg/kg/day subcutaneous) | % of inhibition versus control rats ([3]; 20 mg/kg/day subcutaneous) | Anti-Pneumocystis activity % inhibition vs. free-drug control at 0.1 µg/mL [2] | Cytotoxicity [5] | also measured
212 to 215 °C | – | CN(CCNc1ccccc1)c1ccc(C(=N)N)cc1 (as salt: hydrochloride) [Compound 9, N-(Benzamidine-4-yl)-N-methyl-N′-phenylethane-1,2-diamine hydrochloride salt] | – | – | – | – | – | – | – | – | – | –
191 to 193 °C | – | N=C(N)c1ccc(NCCNc2ccccc2)cc1 (as salt: sulfate) [Compound 7, N-(Benzamidine-4-yl)-N′-phenylethane-1,2-diamine sulfate salt] | – | – | – | – | – | – | – | – | – | –
– | 0.08 ± 0.01 µM | N=C(N)c1ccc(OCCCCCOc2ccc(C(=N)N)cc2)cc1 [Compound 1, pentamidine, reference compound] | 1.98 ± 0.2 µM | 1.09 ± 0.23 | 99 ± 0.1% | 89% | 99 ± 0.1% | 84.6% | 95.3% | – | – | Cutaneous reaction at the site of injections [4]: deleterious wounds could be seen on the skin
– | – | N=C(N)c1ccc(N2CCN(c3ccccc3)CC2)cc1 [Compound 3] | 56.06 ± 0.39 µM | – | 99 ± 0.1% | 8.3 ± 14.4% | 99 ± 0.1% | – | – | – | – | –
– | – | Nc1ccc(N2CCN(c3ccc(N)cc3)CC2)cc1 [Compound 4] | 40.8 ± 4.4 µM | – | – | – | – | – | – | inactive | – | Anti-Pneumocystis activity % inhibition vs. free-drug control at 10 µg/mL [2]: inactive; Anti-Pneumocystis activity % inhibition vs. free-drug control at 50 µg/mL [2]: inactive
146 to 149 °C | – | Nc1ccc(N2CCN(c3ccccc3)CC2)cc1 [Compound 5, 1-(4-Aminophenyl)-4-phenylpiperazine] | 10.2 ± 0.6 µM | – | – | – | – | – | – | inactive | – | Anti-Pneumocystis activity % inhibition vs. free-drug control at 10 µg/mL [2]: inactive; Anti-Pneumocystis activity % inhibition vs. free-drug control at 50 µg/mL [2]: inactive
– | 0.6 ± 0.12 µM | N=C(N)c1ccc(NCCNc2ccc(C(=N)N)cc2)cc1 [Compound 6, N,N′-bis(benzamidine-4-yl)ethane-1,2-diamine] | 30.2 ± 1.14 µM | 1.49 ± 0.31 | 98.7 ± 0.6% | 29.8 ± 19.7% | 97.7 ± 0.6% | 78.4% | 86.2% | – | no cytotoxicity | IC50 fold higher than for the reference compound (pentamidine) [5]: 15 fold; In vivo anti-Pneumocystis activity [3]: strong anti-Pneumocystis activity comparable to that of pentamidine at both doses; Cutaneous reaction at the site of injections [4]: did not develop any cutaneous reaction; Behavior during the treatment ([4]; visual observations): quite normal behavior
– | 0.4 ± 0.08 µM | N=C(N)c1ccc(NCCNc2ccccc2)cc1 [Compound 7, N-(Benzamidine-4-yl)-N′-phenylethane-1,2-diamine sulfate salt] | 40.6 ± 1.3 µM | 2.00 ± 0.54 | 99.5 ± 0.4% | 42 ± 12.5% | 98.7 ± 0.6% | 43.1% | 54.3% | – | no cytotoxicity | IC50 fold higher than for the reference compound (pentamidine) [5]: 20 fold; Emax ([2]; Hill equation, maximum effect, 4 days of culture): 99.37 ± 2.54%; In vivo anti-Pneumocystis activity [3]: poorly potent; Elimination from plasma [6]: more rapidly eliminated from plasma
– | – | CN(CCNc1ccc(C(=N)N)cc1)c1ccc(C(=N)N)cc1 [Compound 8] | 2.48 ± 0.35 µM | – | 99% | 15 ± 12.5% | 99% | – | – | – | cytotoxicity similar to that of pentamidine | –
– | – | CN(CCNc1ccccc1)c1ccc(C(=N)N)cc1 [Compound 9, N-(Benzamidine-4-yl)-N-methyl-N′-phenylethane-1,2-diamine hydrochloride salt] | 3.11 ± 0.09 µM | – | 88.7 ± 2.5% | – | 86.3 ± 4% | – | – | inactive | cytotoxicity similar to that of pentamidine | –
